Test results from patent publication US9737502B2, “Calebin A for hepatic steatosis” (SAMI LABS LIMITED, priority 2011, dated 2017).

Experiments:
TNF-α = experiment: Intracellular TNF-α in LPS-stimulated murine neutrophils (flow cytometry); assay type: cell-based; settings: 100 μg/ml
Procedure: The present inventors also adduce extra evidence to support the ability of Calebin A to suppress intracellular TNF and extracellular IL-1β in murine neutrophil systems (Table II, Table III). Neutrophils are isolated by histopaque gradient method tested for their ability to produce in vitro TNF-α following stimulation with Lipopolysaccharide (LPS). The cells were incubated with phycoerythrin (PE)-labeled anti-mouse TNF-α in the dark, and after being washed with sterile PBS, samples were resuspended in PBS (pH 7.4) and acquired directly on the flow cytometer (BDLSR; Becton Dickinson). A fluorescence trigger was set on the PE […] parameter of the gated neutrophil populations (10,000 events). Rolipram at 100 μg/ml was used as standard inhibitor of TNF-α in this study. Fluorescence compensation, data analysis, and data presentation were performed using Cell Quest Pro software (Becton Dickinson).

IL-1β = experiment: Extracellular IL-1β in LPS-stimulated murine neutrophils; assay type: cell-based; settings: 100 μg/ml

## COc1ccc(C2CNC(=O)C2)cc1OC1CCCC1 (stereo not shown) [Rolipram, reference compound]
TNF-α
  % Activity (suppression of TNF-α expression): 72.13%↓
TNF-α; LPS Control 2.62 ± 0.01
  Expression of TNF-α Mean ± S.E: 0.73 ± 0.09
IL-1β
  % Activity (suppression of IL-1 β expression): 56.52%↓
IL-1β; LPS Control 51.80 ± 2.18
  IL-1β Concentration: 22.52 ± 1.60 pg/mL
